# Test results reported in article PMC12295086, “CtGH76, a Glycoside Hydrolase 76 from Chaetomium thermophilum, with Elongated Glycan-Binding Canyon” (International Journal of Molecular Sciences, 2025).
# Target: T1, CtGH76 (Thermochaetoides thermophila, UniProt G0S5Y9)
# T1 construct: gene CTHT_0025410; M1-M50 omitted (precursor 439 aa, predicted signal peptide M1-V60); N-terminal His10-tag removed with TEV; pET28a, E. coli SHuffle T7 Express; one molecule per asymmetric unit
# Assay: X-ray crystal structure, crystal soaking
# Assay type: binding
# Conditions: soaked with mannose; subsites −4, −2 and +3
# T1 sequence (G0S5Y9 entry or part of it): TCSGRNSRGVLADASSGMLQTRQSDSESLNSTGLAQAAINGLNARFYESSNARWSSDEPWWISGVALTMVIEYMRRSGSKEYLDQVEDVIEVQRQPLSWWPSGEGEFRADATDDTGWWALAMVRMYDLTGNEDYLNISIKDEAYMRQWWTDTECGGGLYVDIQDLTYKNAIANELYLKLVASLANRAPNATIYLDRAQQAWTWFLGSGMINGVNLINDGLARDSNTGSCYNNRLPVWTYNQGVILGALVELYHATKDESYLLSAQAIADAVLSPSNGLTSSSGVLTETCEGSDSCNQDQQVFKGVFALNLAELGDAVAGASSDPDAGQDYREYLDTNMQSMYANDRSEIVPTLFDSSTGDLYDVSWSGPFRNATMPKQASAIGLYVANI
compound,measurement,value
OC[C@H]1OC(O)[C@@H](O)[C@@H](O)[C@@H]1O (stereo partly shown) [mannose],"X-ray crystal structure, crystal soaking",Soaking with mannose in CtGH76 identified potential sugar-binding subsites analogous to CtDfg5
